Test results: ChEMBL document CHEMBL3045532, “Synthesis and evaluation of novel prodrugs of naproxen” (Med Chem Res, 2011)

How the values were obtained:
Rattus norvegicus [1] = experiment: Anti-inflammatory activity in Rattus norvegicus Wistar (rat) assessed as inhibition of carrageenan-induced edema volume at 67.0 mg/kg, po measured after 90 min; assay type: functional; settings: 1.5 h
Mus musculus [2] = experiment: Analgesic activity in Mus musculus (mouse) assessed as inhibition of acetic acid-induced writhing at 67 mg/kg, po pretreated 1 hr before acetic acid challenge; assay type: functional
Rattus norvegicus [3] = experiment: Anti-inflammatory activity in Rattus norvegicus Wistar (rat) assessed as inhibition of carrageenan-induced edema volume at 67.0 mg/kg, po measured after 30 min; assay type: functional; settings: 0.5 h
Rattus norvegicus [4] = experiment: Anti-inflammatory activity in Rattus norvegicus Wistar (rat) assessed as inhibition of carrageenan-induced edema volume at 67.0 mg/kg, po measured after 120 min; assay type: functional; settings: 2 h
Rattus norvegicus [5] = experiment: Anti-inflammatory activity in Rattus norvegicus Wistar (rat) assessed as inhibition of carrageenan-induced edema volume at 67.0 mg/kg, po measured after 60 min; assay type: functional; settings: 1 h
Rattus norvegicus [6] = experiment: Anti-inflammatory activity in Rattus norvegicus Wistar (rat) assessed as inhibition of carrageenan-induced edema volume at 71.9 mg/kg, po measured after 30 min; assay type: functional; settings: 0.5 h
Mus musculus [7] = experiment: Analgesic activity in Mus musculus (mouse) assessed as inhibition of acetic acid-induced writhing at 71.9 mg/kg, po pretreated 1 hr before acetic acid challenge; assay type: functional
Rattus norvegicus [8] = experiment: Anti-inflammatory activity in Rattus norvegicus Wistar (rat) assessed as inhibition of carrageenan-induced edema volume at 71.9 mg/kg, po measured after 60 min; assay type: functional; settings: 1 h
Rattus norvegicus [9] = experiment: Anti-inflammatory activity in Rattus norvegicus Wistar (rat) assessed as inhibition of carrageenan-induced edema volume at 71.9 mg/kg, po measured after 120 min; assay type: functional; settings: 2 h
[10] = Prodrug conversion in phosphate buffer assessed as half-life for hydrolysis at pH 7.4; assay type: physicochemical
[11] = Prodrug conversion in acetate buffer assessed as half-life for hydrolysis at pH 4; assay type: physicochemical
Rattus norvegicus [12] = experiment: Anti-inflammatory activity in Rattus norvegicus Wistar (rat) assessed as inhibition of carrageenan-induced edema volume at 71.9 mg/kg, po measured after 90 min; assay type: functional; settings: 1.5 h
[13] = Prodrug conversion in acetate buffer assessed as half-life for hydrolysis at pH 3; assay type: physicochemical
[14] = Prodrug conversion in acetate buffer assessed as half-life for hydrolysis at pH 5; assay type: physicochemical
Rattus norvegicus [15] = experiment: Anti-inflammatory activity in Rattus norvegicus Wistar (rat) assessed as inhibition of carrageenan-induced edema volume at 67.6 mg/kg, po measured after 60 min; assay type: functional; settings: 1 h
Rattus norvegicus [16] = experiment: Anti-inflammatory activity in Rattus norvegicus Wistar (rat) assessed as inhibition of carrageenan-induced edema volume at 67.6 mg/kg, po measured after 90 min; assay type: functional; settings: 1.5 h
Rattus norvegicus [17] = experiment: Anti-inflammatory activity in Rattus norvegicus Wistar (rat) assessed as inhibition of carrageenan-induced edema volume at 67.6 mg/kg, po measured after 30 min; assay type: functional; settings: 0.5 h
Rattus norvegicus [18] = experiment: Anti-inflammatory activity in Rattus norvegicus Wistar (rat) assessed as inhibition of carrageenan-induced edema volume at 67.6 mg/kg, po measured after 120 min; assay type: functional; settings: 2 h
Mus musculus [19] = experiment: Analgesic activity in Mus musculus (mouse) assessed as inhibition of acetic acid-induced writhing at 67.6 mg/kg, po pretreated 1 hr before acetic acid challenge; assay type: functional
Rattus norvegicus [20] = experiment: Anti-inflammatory activity in Rattus norvegicus Wistar (rat) assessed as inhibition of carrageenan-induced edema volume at 68.9 mg/kg, po measured after 120 min; assay type: functional; settings: 2 h
Rattus norvegicus [21] = experiment: Anti-inflammatory activity in Rattus norvegicus Wistar (rat) assessed as inhibition of carrageenan-induced edema volume at 68.9 mg/kg, po measured after 30 min; assay type: functional; settings: 0.5 h
Rattus norvegicus [22] = experiment: Anti-inflammatory activity in Rattus norvegicus Wistar (rat) assessed as inhibition of carrageenan-induced edema volume at 68.9 mg/kg, po measured after 90 min; assay type: functional; settings: 1.5 h
Rattus norvegicus [23] = experiment: Anti-inflammatory activity in Rattus norvegicus Wistar (rat) assessed as inhibition of carrageenan-induced edema volume at 68.9 mg/kg, po measured after 60 min; assay type: functional; settings: 1 h
Mus musculus [24] = experiment: Analgesic activity in Mus musculus (mouse) assessed as inhibition of acetic acid-induced writhing at 68.9 mg/kg, po pretreated 1 hr before acetic acid challenge; assay type: functional
Mus musculus [25] = experiment: Analgesic activity in Mus musculus (mouse) assessed as inhibition of acetic acid-induced writhing at 64.7 mg/kg, po pretreated 1 hr before acetic acid challenge; assay type: functional
Rattus norvegicus [26] = experiment: Anti-inflammatory activity in Rattus norvegicus Wistar (rat) assessed as inhibition of carrageenan-induced edema volume at 64.7 mg/kg, po measured after 90 min; assay type: functional; settings: 1.5 h
Rattus norvegicus [27] = experiment: Anti-inflammatory activity in Rattus norvegicus Wistar (rat) assessed as inhibition of carrageenan-induced edema volume at 64.7 mg/kg, po measured after 30 min; assay type: functional; settings: 0.5 h
Rattus norvegicus [28] = experiment: Anti-inflammatory activity in Rattus norvegicus Wistar (rat) assessed as inhibition of carrageenan-induced edema volume at 64.7 mg/kg, po measured after 120 min; assay type: functional; settings: 2 h
Rattus norvegicus [29] = experiment: Anti-inflammatory activity in Rattus norvegicus Wistar (rat) assessed as inhibition of carrageenan-induced edema volume at 64.7 mg/kg, po measured after 60 min; assay type: functional; settings: 1 h
Rattus norvegicus [30] = experiment: Anti-inflammatory activity in Rattus norvegicus Wistar (rat) assessed as inhibition of carrageenan-induced edema volume at 69.6 mg/kg, po measured after 60 min; assay type: functional; settings: 1 h
Rattus norvegicus [31] = experiment: Anti-inflammatory activity in Rattus norvegicus Wistar (rat) assessed as inhibition of carrageenan-induced edema volume at 69.6 mg/kg, po measured after 30 min; assay type: functional; settings: 0.5 h
Rattus norvegicus [32] = experiment: Anti-inflammatory activity in Rattus norvegicus Wistar (rat) assessed as inhibition of carrageenan-induced edema volume at 69.6 mg/kg, po measured after 120 min; assay type: functional; settings: 2 h
Mus musculus [33] = experiment: Analgesic activity in Mus musculus (mouse) assessed as inhibition of acetic acid-induced writhing at 69.6 mg/kg, po pretreated 1 hr before acetic acid challenge; assay type: functional
Rattus norvegicus [34] = experiment: Anti-inflammatory activity in Rattus norvegicus Wistar (rat) assessed as inhibition of carrageenan-induced edema volume at 69.6 mg/kg, po measured after 90 min; assay type: functional; settings: 1.5 h

Compound COc1ccc2cc(C(C)C(=O)OCC(OC(C)=O)C(OC(C)=O)C(OC(C)=O)C(/C=N/[C@@H](Cc3cnc[nH]3)C(=O)O)OC(C)=O)ccc2c1 (some centres undefined) has an inhibition in vivo at 67 mg/kg (Rattus norvegicus [1]) of 39%, an inhibition in vivo at 67 mg/kg (Mus musculus [2]) of 65.9% and an inhibition in vivo at 67 mg/kg (Rattus norvegicus [3]) of 26%. For the same compound, the inhibition in vivo at 67 mg/kg (Rattus norvegicus [4]) was 58% and the inhibition in vivo at 67 mg/kg (Rattus norvegicus [5]) was 13%.

COc1ccc2cc(C(C)C(=O)OCC(OC(C)=O)C(OC(C)=O)C(OC(C)=O)C(/C=N/[C@@H](Cc3c[nH]c4ccccc34)C(=O)O)OC(C)=O)ccc2c1 (some centres undefined) showed an inhibition in vivo at 71.9 mg/kg (Rattus norvegicus [6]) of 18%, an inhibition in vivo at 71.9 mg/kg (Mus musculus [7]) of 73.7% and an inhibition in vivo at 71.9 mg/kg (Rattus norvegicus [8]) of 16%. For the same compound, the inhibition in vivo at 71.9 mg/kg (Rattus norvegicus [9]) was 70%, the t1/2 [10] was 18 h and the t1/2 [11] was 115 h. The inhibition in vivo at 71.9 mg/kg (Rattus norvegicus [12]) was 36%, the t1/2 [13] was 88 h and the t1/2 [14] was 57 h.

Work on COc1ccc2cc(C(C)C(=O)OCC(OC(C)=O)C(OC(C)=O)C(OC(C)=O)C(/C=N/[C@@H](CC(=O)O)C(=O)O)OC(C)=O)ccc2c1 (some centres undefined) yielded an inhibition in vivo at 67.6 mg/kg (Rattus norvegicus [15]) of 1%, an inhibition in vivo at 67.6 mg/kg (Rattus norvegicus [16]) of 28% and an inhibition in vivo at 67.6 mg/kg (Rattus norvegicus [17]) of 20%. For the same compound, the inhibition in vivo at 67.6 mg/kg (Rattus norvegicus [18]) was 45% and the inhibition in vivo at 67.6 mg/kg (Mus musculus [19]) was 75.1%.

With COc1ccc2cc(C(C)C(=O)OCC(OC(C)=O)C(OC(C)=O)C(OC(C)=O)C(/C=N/[C@@H](CCC(=O)O)C(=O)O)OC(C)=O)ccc2c1 (some centres undefined) the inhibition in vivo at 68.9 mg/kg (Rattus norvegicus [20]) was 66%, the inhibition in vivo at 68.9 mg/kg (Rattus norvegicus [21]) was 32% and the inhibition in vivo at 68.9 mg/kg (Rattus norvegicus [22]) was 53%. The inhibition in vivo at 68.9 mg/kg (Rattus norvegicus [23]) was 32% and the inhibition in vivo at 68.9 mg/kg (Mus musculus [24]) was 64.1%.

Compound COc1ccc2cc(C(C)C(=O)OCC(OC(C)=O)C(OC(C)=O)C(OC(C)=O)C(/C=N/[C@@H](CCCN)C(=O)O)OC(C)=O)ccc2c1 (some centres undefined) has an inhibition in vivo at 64.7 mg/kg (Mus musculus [25]) of 82%, an inhibition in vivo at 64.7 mg/kg (Rattus norvegicus [26]) of 50% and an inhibition in vivo at 64.7 mg/kg (Rattus norvegicus [27]) of 24%. It also gave an inhibition in vivo at 64.7 mg/kg (Rattus norvegicus [28]) of 67% and an inhibition in vivo at 64.7 mg/kg (Rattus norvegicus [29]) of 32%.

COc1ccc2cc(C(C)C(=O)OCC(OC(C)=O)C(OC(C)=O)C(OC(C)=O)C(/C=N/[C@@H](Cc3ccc(O)c(O)c3)C(=O)O)OC(C)=O)ccc2c1 (some centres undefined) showed an inhibition in vivo at 69.6 mg/kg (Rattus norvegicus [30]) of 41%, an inhibition in vivo at 69.6 mg/kg (Rattus norvegicus [31]) of 44% and an inhibition in vivo at 69.6 mg/kg (Rattus norvegicus [32]) of 73%. For the same compound, the inhibition in vivo at 69.6 mg/kg (Mus musculus [33]) was 92.3% and the inhibition in vivo at 69.6 mg/kg (Rattus norvegicus [34]) was 50%.
